Where “and” joins values, the source holds several entries; their conditions need not be identical. Equal values may be shown once.
Tests used:
[1] = UV-vis absorption and emission measurements in aqueous buffer; format: physicochemical
Description: UV-vis absorption and emission measurements. FCP-1 stock solution in DMSO (5 mM) was prepared, aliquoted and stored at […]. For each spectroscopic measurement, a fresh aliquot was diluted to 500 μM by DMSO and further diluted with PBS containing 2 mM GSH/PEG-400 mixture (3:2, v/v) to prepare the sensing solution with 5 μM of FCP-1. The sensing solution was pre-incubated in a water bath at 37° C., and then [Cu(CH3CN)](PF6) in MeCN or other metal ions in H2O was added. The solution mixture was kept at 37° C. and taken out for UV-vis absorption or emission spectroscopic measurements in quartz cuvette at predetermined time intervals. Emission spectra were corrected using coumarin 153 as secondary emission standard (4). Photoluminescence quantum yield (PLQY) was determined using fluorescein in 0.1 M NaOH solution (0.95; λex=496 nm). FRET efficiency from the fluorescein moiety to rhodamine moiety of FCP-1 was estimated by [1−(PLQY of FCP-1/PLQY of FL-TPA)].
FCP-1 in PBS buffer containing glutathione (2 mM) and PEG-400 (40%, v/v) was evaluated. […] The first two absorption maxima corresponded to the absorption of the fluorescein moiety, as similar absorption maxima at 460 and 489 nm were found in the absorption spectra of FL-TPA (FIG. 4), whereas the lowest energy absorption at 552 nm originated from the rhodamine moiety (FIG. 4). […] Together with the significant contribution of the lower-energy fluorescence from the excitation at 450-500 nm, which is in the region of FL-TPA absorption (FIG. 6), the data support the occurrence of FRET from the fluorescein donor to the rhodamine acceptor. Using FL-TPA as a reference FRET donor compound (FIG. 7) with assumption that quenching of donor fluorescence originated only from the FRET process, the FRET efficiency in the FCP-1 cassette is estimated to be 84%.

[2] = system: labile Cu(I) pools in HEK 293T cells; assay: Ratiometric confocal fluorescence imaging of labile Cu(I) in HEK 293T cells; format: cell-based, Human; conditions: CuCl2 25 μM, FL-TPA 5 μM, λex 488 nm (FIG. 15)
Description: (A) Confocal fluorescence microscopy images of HEK 293T cells pretreated with solvent vehicle control or varying concentrations of CuCl2 in complete medium for 18 h. The cells were then washed with PBS, incubated with FCP-1 (5 μM) in DPBS for 45 min and then imaged. (B) Average cellular ratiometric emission ratios, represented by Fgreen/Forange, as determined from imaging experiments in (A) performed in triplicate. (C) Confocal fluorescence microscopy images of HEK 293T cells pretreated with solvent vehicle control or BCS (100 μM) in complete medium for 18 h. The cells were then washed with PBS, incubated with FCP-1 (5 μM) in DPBS for 45 min and then imaged. (D) Average cellular ratiometric emission ratios of FCP-1, Fgreen/Forange, as determined from experiments in (C) performed in triplicate. […] (E) ICP-MS measurement to determine total cellular ^63Cu levels in HEK293T cells under copper supplementation and depletion relative to the control (with normalization of different cell numbers by total cellular ^31P level). Error bars denote standard derivation (SD; n=3). *p<0.05, **p<0.01, ***p<0.001, ****p<0.0001 and *****p<0.00001.
Cell culture. Following cell cultures were grown: Human embryonic kidney (HEK 293T) cells were maintained in Dulbecco's Modified Eagle Medium (DMEM) supplemented with 10 vol % fetal bovine serum (FBS), 1 vol % GlutaMax (Gibco) and 1 vol % non-essential amino acids (NEAA, Gibco). Ctrl1^+/+ and Ctr1^−/− MEF cells were maintained in DMEM with 10 vol % FBS, 1 vol % non-essential amino acids, 1 vol % sodium pyruvate and 0.1 vol % 2-mercaptoethanol or DMEM supplemented with 10 vol % FBS and 1× Penicillin-Streptomycin. Human cervical epithelial carcinoma (HeLa) was maintained in DMEM medium supplemented with 1 vol % GlutaMAX and 10 vol % FBS. […]
Confocal fluorescence microscopy imaging. For confocal fluorescence imaging experiments of HEK293T, MEF Ctr1^+/+ and Ctr1^−/− and HeLa cells, the cells were plated on 8-well Lab Tek borosilicate chambered coverglass slides (Nunc), and allowed to grow to ca. 60% confluency before performing the cell imaging experiments. […] For quantification, a threshold value was set as background and the average intensity of the whole image was measured by ImageJ. […]
Given the metal and oxidation state-selective and sensitive response of FCP-1 to Cu(I), this probe was examined for ratiometric fluorescence imaging of labile Cu(I) pools in living cells. […] The observed increases and decreases in labile Cu(I) levels upon copper supplementation (CuCl2) and copper depletion (BCS) treatments, respectively, as measured by FCP-1 imaging were supported by complementary ICP-MS measurements of total copper levels showing expected increases and decreases in the total copper pool (FIG. 9, panel C).

[3] = system: labile Cu(I) in Ctr1^+/+ MEFs; assay: Confocal fluorescence imaging of labile Cu(I) in Ctr1+/+ MEFs; format: cell-based, mouse; conditions: FL-TPA 5 μM, 45 min, λex 488 nm
Description: (A) Confocal fluorescence microscopy images of Ctr1^+/+ MEFs and Ctr1^−/− MEFs treated with solvent control, CuCl2 (100 or 300 μM) or BCS (500 μM) in complete medium for 8 h, washed with complete medium and PBS, incubated with FCP-1 (5 μM) in DPBS for 45 min, and then imaged with λex=458 nm. (B) Average cellular ratiometric emission ratios of FCP-1, Fgreen/Forange, as determined from experiments performed in triplicate. (C) Total cellular ^63Cu levels were determined by ICP-MS experiments (with normalization of different cell numbers by total cellular ^31P level). (D) Confocal fluorescence microscopy images of Ctr1^+/+ MEFs and Ctr1^−/− MEFs incubated with FL-TPA (5 μM) in DPBS for 45 min. The cells were then imaged with λex=488 nm. (E) Average cellular fluorescence intensity of FL-TPA, FFL-TPA, determined from experiments performed in triplicate with λex=488 nm. Error bars denote SD (n=3). *p<0.05, **p<0.01 and ***p<0.001.
Cell culture. Following cell cultures were grown: Human embryonic kidney (HEK 293T) cells were maintained in Dulbecco's Modified Eagle Medium (DMEM) supplemented with 10 vol % fetal bovine serum (FBS), 1 vol % GlutaMax (Gibco) and 1 vol % non-essential amino acids (NEAA, Gibco). Ctrl1^+/+ and Ctr1^−/− MEF cells were maintained in DMEM with 10 vol % FBS, 1 vol % non-essential amino acids, 1 vol % sodium pyruvate and 0.1 vol % 2-mercaptoethanol or DMEM supplemented with 10 vol % FBS and 1× Penicillin-Streptomycin. Human cervical epithelial carcinoma (HeLa) was maintained in DMEM medium supplemented with 1 vol % GlutaMAX and 10 vol % FBS. All cells were incubated in 5% CO2 humidified air and subcultured at 80% confluence.
Confocal fluorescence microscopy imaging. For confocal fluorescence imaging experiments of HEK293T, MEF Ctr1^+/+ and Ctr1^−/− and HeLa cells, the cells were plated on 8-well Lab Tek borosilicate chambered coverglass slides (Nunc), and allowed to grow to ca. 60% confluency before performing the cell imaging experiments. The confocal imaging was performed with a Zeiss laser scanning microscope 710 with 20× or 63× oil-immersion objective lens using Zen 2009 software (Carl Zeiss). FCP-1 was excited with 458 nm with an Ar laser, and the emissions were collected using a META detector between 465 and 541 nm (Fgreen), and between 559 and 710 nm (Forange). DRAQ-5 was excited with a 633 nm He Ne laser, and its emission was collected using a META detector between 661 and 759 nm. Image analysis was performed using ImageJ, with ratiometric images generated by the Ratio Plus plugin of ImageJ. For quantification, a threshold value was set as background and the average intensity of the whole image was measured by ImageJ. All experiments were performed in triplicate, and statistical analyses were performed with a two-tailed Student's t-test (MS excel).
Having established that FCP-1 is sensitive to endogenous pools of labile Cu(I) under basal conditions and can respond to changes in labile Cu(I) pools upon pharmacological copper supplementation and/or depletion, the application of FCP-1 to visualize alterations in endogenous labile Cu(I) pools through genetic manipulation was explored. To this end, comparative FCP-1 imaging was performed in mouse embryonic fibroblast cells that are either Cu-replete (Ctr1^+/+ MEFs) or Cu-deficient (Ctr1^−/− MEFs) through knockout of the high-affinity copper transporter CTR1 (64-66).
Complementary ICP-MS measurements confirm that total copper levels in Ctr1^−/− MEFs are lower than Ctr1^+/+ MEFs (FIG. 12C). […]

Row | absorption maxima ([1]; PBS buffer containing glutathione (2 mM) and PEG-400 (40%, v/v)) | absorption at 458 nm ([1]; 5 μM in PBS, 2 mM GSH, 40 vol % PEG-400) | Compound | detection of changes in labile copper with exogenous copper addition [2] | ability to distinguish basal labile Cu(I) levels in Ctr1+/+ and Ctr1−/− MEFs [3]
1 | 460 nm and 489 nm |  | COC(=O)c1ccccc1-c1c2ccc(=O)cc-2oc2cc(OCc3cccc(CN(Cc4ccccn4)Cc4ccccn4)n3)ccc12 [FL-TPA] | able to detect changes in labile copper | unable to distinguish differences
2 |  | weak absorption | N-[9-(2-carboxyphenyl)-6-(1-piperazinyl)-3H-xanthen-3-ylidene]-N-ethyl-ethanaminium [Pz-rhodamine, reference compound] |  | 

Reference: patent US12241902B2, “Probes for detection of copper” (The Regents of the University of California, priority 2019, dated 2025)
